Laboratory results reported in ChEMBL document CHEMBL4376833, “Influence of Non-natural Cationic Amino Acids on the Biological Activity Profile of Innate Defense Regulator Peptides” (J Med Chem, 2019).
The source made the active and inactive calls. The rule behind the calls is not given here. Non-standard residues stand in square brackets, D forms with d. Residues, ends and D or L forms follow the SMILES beside them. hArg = N=C(N)NCCCC[C@H](N)C(=O)O; Agb = N=C(N)NCC[C@H](N)C(=O)O; Agp = N=C(N)NC[C@H](N)C(=O)O; Orn = NCCC[C@H](N)C(=O)O; Dab = NCC[C@H](N)C(=O)O; Dap = NC[C@H](N)C(=O)O

Experiments:
Staphylococcus aureus [1] = experiment: Antibiofilm activity against methicillin-resistant Staphylococcus aureus assessed as inhibition of biofilm formation incubated for overnight by crystal violet staining based microtiter plate assay; type: functional, organism-based
Staphylococcus aureus [2] = experiment: Antibiofilm activity against methicillin-resistant Staphylococcus aureus assessed as inhibition of biofilm formation by measuring residual biofilm growth incubated for overnight at 10-fold dilution by crystal violet staining based microtiter plate assay relative to control; type: functional
Staphylococcus aureus [3] = experiment: Antibacterial activity against methicillin-resistant Staphylococcus aureus assessed as alteration in bacterial growth incubated for overnight by microtiter plate based spectrophotometric analysis; type: functional, organism-based

SMILES: CC[C@H](C)[C@H](NC(=O)[C@H](CCCNC(=N)N)NC(=O)[C@@H](NC(=O)[C@H](CNC(=N)N)NC(=O)[C@@H](NC(=O)[C@@H](NC(=O)[C@H](CC(C)C)NC(=O)[C@H](CCCNC(=N)N)NC(=O)[C@@H](N)C(C)C)[C@@H](C)CC)C(C)C)C(C)C)C(=O)N[C@@H](Cc1c[nH]c2ccccc12)C(=O)N[C@@H](CCCNC(=N)N)C(=O)N[C@@H](CCCNC(=N)N)C(N)=O (H-VRLIV[Agp]VRIWRR-NH2)
- inhibition (Staphylococcus aureus [1]): Dose-dependent effect
- residual biofilm growth (% of control) (Staphylococcus aureus [2]): 104.8%
- Activity (Staphylococcus aureus [3]): Active

SMILES: CC[C@H](C)[C@H](NC(=O)[C@H](CCCNC(=N)N)NC(=O)[C@@H](NC(=O)[C@H](CCN)NC(=O)[C@@H](NC(=O)[C@@H](NC(=O)[C@H](CC(C)C)NC(=O)[C@H](CCCNC(=N)N)NC(=O)[C@@H](N)C(C)C)[C@@H](C)CC)C(C)C)C(C)C)C(=O)N[C@@H](Cc1c[nH]c2ccccc12)C(=O)N[C@@H](CCCNC(=N)N)C(=O)N[C@@H](CCCNC(=N)N)C(N)=O (H-VRLIV[Dab]VRIWRR-NH2)
- inhibition (Staphylococcus aureus [1]): Dose-dependent effect
- residual biofilm growth (% of control) (Staphylococcus aureus [2]): 52.7%
- Activity (Staphylococcus aureus [3]): Active

SMILES: CC[C@H](C)[C@H](NC(=O)[C@H](CCCNC(=N)N)NC(=O)[C@@H](NC(=O)[C@H](CN)NC(=O)[C@@H](NC(=O)[C@@H](NC(=O)[C@H](CC(C)C)NC(=O)[C@H](CCCNC(=N)N)NC(=O)[C@@H](N)C(C)C)[C@@H](C)CC)C(C)C)C(C)C)C(=O)N[C@@H](Cc1c[nH]c2ccccc12)C(=O)N[C@@H](CCCNC(=N)N)C(=O)N[C@@H](CCCNC(=N)N)C(N)=O (H-VRLIV[Dap]VRIWRR-NH2)
- inhibition (Staphylococcus aureus [1]): Dose-dependent effect
- residual biofilm growth (% of control) (Staphylococcus aureus [2]): 34.1%
- Activity (Staphylococcus aureus [3]): Active

SMILES: CC[C@H](C)[C@H](NC(=O)[C@H](CCCNC(=N)N)NC(=O)[C@@H](NC(=O)[C@H](CCCN)NC(=O)[C@@H](NC(=O)[C@@H](NC(=O)[C@H](CC(C)C)NC(=O)[C@H](CCCNC(=N)N)NC(=O)[C@@H](N)C(C)C)[C@@H](C)CC)C(C)C)C(C)C)C(=O)N[C@@H](Cc1c[nH]c2ccccc12)C(=O)N[C@@H](CCCNC(=N)N)C(=O)N[C@@H](CCCNC(=N)N)C(N)=O (H-VRLIV[Orn]VRIWRR-NH2)
- inhibition (Staphylococcus aureus [1]): Dose-dependent effect
- residual biofilm growth (% of control) (Staphylococcus aureus [2]): 14.2%
- Activity (Staphylococcus aureus [3]): Active

SMILES: CC[C@H](C)[C@H](NC(=O)[C@H](CCCNC(=N)N)NC(=O)[C@@H](NC(=O)[C@H](CCCCNC(=N)N)NC(=O)[C@@H](NC(=O)[C@@H](NC(=O)[C@H](CC(C)C)NC(=O)[C@H](CCCNC(=N)N)NC(=O)[C@@H](N)C(C)C)[C@@H](C)CC)C(C)C)C(C)C)C(=O)N[C@@H](Cc1c[nH]c2ccccc12)C(=O)N[C@@H](CCCNC(=N)N)C(=O)N[C@@H](CCCNC(=N)N)C(N)=O (H-VRLIV[hArg]VRIWRR-NH2)
- inhibition (Staphylococcus aureus [1]): Dose-dependent effect
- residual biofilm growth (% of control) (Staphylococcus aureus [2]): 19.7%
- Activity (Staphylococcus aureus [3]): Active

SMILES: CC[C@H](C)[C@H](NC(=O)[C@H](CC(C)C)NC(=O)[C@H](CCCNC(=N)N)NC(=O)[C@@H](N)C(C)C)C(=O)N[C@@H](CCNC(=N)N)C(=O)N[C@@H](C)C(=O)N[C@H](C(=O)N[C@@H](CCCNC(=N)N)C(=O)N[C@H](C(=O)N[C@@H](Cc1c[nH]c2ccccc12)C(=O)N[C@@H](CCCNC(=N)N)C(=O)N[C@@H](CCCNC(=N)N)C(N)=O)[C@@H](C)CC)C(C)C (H-VRLI[Agb]AVRIWRR-NH2)
- inhibition (Staphylococcus aureus [1]): Dose-dependent effect
- residual biofilm growth (% of control) (Staphylococcus aureus [2]): 103.2%
- Activity (Staphylococcus aureus [3]): Active

SMILES: CC[C@H](C)[C@H](NC(=O)[C@H](CC(C)C)NC(=O)[C@H](CCCNC(=N)N)NC(=O)[C@@H](N)C(C)C)C(=O)N[C@@H](CNC(=N)N)C(=O)N[C@@H](C)C(=O)N[C@H](C(=O)N[C@@H](CCCNC(=N)N)C(=O)N[C@H](C(=O)N[C@@H](Cc1c[nH]c2ccccc12)C(=O)N[C@@H](CCCNC(=N)N)C(=O)N[C@@H](CCCNC(=N)N)C(N)=O)[C@@H](C)CC)C(C)C (H-VRLI[Agp]AVRIWRR-NH2)
- inhibition (Staphylococcus aureus [1]): Dose-dependent effect
- residual biofilm growth (% of control) (Staphylococcus aureus [2]): 99.9%
- Activity (Staphylococcus aureus [3]): Active

SMILES: CC[C@H](C)[C@H](NC(=O)[C@H](CC(C)C)NC(=O)[C@H](CCCNC(=N)N)NC(=O)[C@@H](N)C(C)C)C(=O)N[C@@H](CCN)C(=O)N[C@@H](C)C(=O)N[C@H](C(=O)N[C@@H](CCCNC(=N)N)C(=O)N[C@H](C(=O)N[C@@H](Cc1c[nH]c2ccccc12)C(=O)N[C@@H](CCCNC(=N)N)C(=O)N[C@@H](CCCNC(=N)N)C(N)=O)[C@@H](C)CC)C(C)C (H-VRLI[Dab]AVRIWRR-NH2)
- inhibition (Staphylococcus aureus [1]): Dose-dependent effect
- residual biofilm growth (% of control) (Staphylococcus aureus [2]): 102.7%
- Activity (Staphylococcus aureus [3]): Active

SMILES: CC[C@H](C)[C@H](NC(=O)[C@H](CC(C)C)NC(=O)[C@H](CCCNC(=N)N)NC(=O)[C@@H](N)C(C)C)C(=O)N[C@@H](CN)C(=O)N[C@@H](C)C(=O)N[C@H](C(=O)N[C@@H](CCCNC(=N)N)C(=O)N[C@H](C(=O)N[C@@H](Cc1c[nH]c2ccccc12)C(=O)N[C@@H](CCCNC(=N)N)C(=O)N[C@@H](CCCNC(=N)N)C(N)=O)[C@@H](C)CC)C(C)C (H-VRLI[Dap]AVRIWRR-NH2)
- inhibition (Staphylococcus aureus [1]): Dose-dependent effect
- residual biofilm growth (% of control) (Staphylococcus aureus [2]): 92%
- Activity (Staphylococcus aureus [3]): Active

SMILES: CC[C@H](C)[C@H](NC(=O)[C@H](CC(C)C)NC(=O)[C@H](CCCNC(=N)N)NC(=O)[C@@H](N)C(C)C)C(=O)N[C@@H](CCCN)C(=O)N[C@@H](C)C(=O)N[C@H](C(=O)N[C@@H](CCCNC(=N)N)C(=O)N[C@H](C(=O)N[C@@H](Cc1c[nH]c2ccccc12)C(=O)N[C@@H](CCCNC(=N)N)C(=O)N[C@@H](CCCNC(=N)N)C(N)=O)[C@@H](C)CC)C(C)C (H-VRLI[Orn]AVRIWRR-NH2)
- inhibition (Staphylococcus aureus [1]): Dose-dependent effect
- residual biofilm growth (% of control) (Staphylococcus aureus [2]): 103%
- Activity (Staphylococcus aureus [3]): Active

SMILES: CC[C@H](C)[C@H](NC(=O)[C@H](CC(C)C)NC(=O)[C@H](CCCNC(=N)N)NC(=O)[C@@H](N)C(C)C)C(=O)N[C@@H](CCCCNC(=N)N)C(=O)N[C@@H](C)C(=O)N[C@H](C(=O)N[C@@H](CCCNC(=N)N)C(=O)N[C@H](C(=O)N[C@@H](Cc1c[nH]c2ccccc12)C(=O)N[C@@H](CCCNC(=N)N)C(=O)N[C@@H](CCCNC(=N)N)C(N)=O)[C@@H](C)CC)C(C)C (H-VRLI[hArg]AVRIWRR-NH2)
- inhibition (Staphylococcus aureus [1]): Dose-dependent effect
- residual biofilm growth (% of control) (Staphylococcus aureus [2]): 110.4%
- Activity (Staphylococcus aureus [3]): Active

SMILES: CC[C@H](C)[C@H](NC(=O)[C@H](CCCNC(=N)N)NC(=O)[C@@H](NC(=O)[C@H](C)NC(=O)[C@@H](NC(=O)[C@H](CCNC(=N)N)NC(=O)[C@H](CC(C)C)NC(=O)[C@H](CCCNC(=N)N)NC(=O)[C@@H](N)C(C)C)C(C)C)C(C)C)C(=O)N[C@@H](Cc1c[nH]c2ccccc12)C(=O)N[C@@H](CCCNC(=N)N)C(=O)N[C@@H](CCCNC(=N)N)C(N)=O (H-VRL[Agb]VAVRIWRR-NH2)
- inhibition (Staphylococcus aureus [1]): Dose-dependent effect
- residual biofilm growth (% of control) (Staphylococcus aureus [2]): 98.5%
- Activity (Staphylococcus aureus [3]): Active

SMILES: CC[C@H](C)[C@H](NC(=O)[C@H](CCCNC(=N)N)NC(=O)[C@@H](NC(=O)[C@H](C)NC(=O)[C@@H](NC(=O)[C@H](CNC(=N)N)NC(=O)[C@H](CC(C)C)NC(=O)[C@H](CCCNC(=N)N)NC(=O)[C@@H](N)C(C)C)C(C)C)C(C)C)C(=O)N[C@@H](Cc1c[nH]c2ccccc12)C(=O)N[C@@H](CCCNC(=N)N)C(=O)N[C@@H](CCCNC(=N)N)C(N)=O (H-VRL[Agp]VAVRIWRR-NH2)
- inhibition (Staphylococcus aureus [1]): Dose-dependent effect
- residual biofilm growth (% of control) (Staphylococcus aureus [2]): 104.1%
- Activity (Staphylococcus aureus [3]): Active

SMILES: CC[C@H](C)[C@H](NC(=O)[C@H](CCCNC(=N)N)NC(=O)[C@@H](NC(=O)[C@H](C)NC(=O)[C@@H](NC(=O)[C@H](CCN)NC(=O)[C@H](CC(C)C)NC(=O)[C@H](CCCNC(=N)N)NC(=O)[C@@H](N)C(C)C)C(C)C)C(C)C)C(=O)N[C@@H](Cc1c[nH]c2ccccc12)C(=O)N[C@@H](CCCNC(=N)N)C(=O)N[C@@H](CCCNC(=N)N)C(N)=O (H-VRL[Dab]VAVRIWRR-NH2)
- inhibition (Staphylococcus aureus [1]): Dose-dependent effect
- residual biofilm growth (% of control) (Staphylococcus aureus [2]): 103.3%
- Activity (Staphylococcus aureus [3]): Active

SMILES: CC[C@H](C)[C@H](NC(=O)[C@H](CCCNC(=N)N)NC(=O)[C@@H](NC(=O)[C@H](C)NC(=O)[C@@H](NC(=O)[C@H](CN)NC(=O)[C@H](CC(C)C)NC(=O)[C@H](CCCNC(=N)N)NC(=O)[C@@H](N)C(C)C)C(C)C)C(C)C)C(=O)N[C@@H](Cc1c[nH]c2ccccc12)C(=O)N[C@@H](CCCNC(=N)N)C(=O)N[C@@H](CCCNC(=N)N)C(N)=O (H-VRL[Dap]VAVRIWRR-NH2)
- inhibition (Staphylococcus aureus [1]): Dose-dependent effect
- residual biofilm growth (% of control) (Staphylococcus aureus [2]): 108.3%
- Activity (Staphylococcus aureus [3]): Active

SMILES: CC[C@H](C)[C@H](NC(=O)[C@H](CCCNC(=N)N)NC(=O)[C@@H](NC(=O)[C@H](C)NC(=O)[C@@H](NC(=O)[C@H](CCCN)NC(=O)[C@H](CC(C)C)NC(=O)[C@H](CCCNC(=N)N)NC(=O)[C@@H](N)C(C)C)C(C)C)C(C)C)C(=O)N[C@@H](Cc1c[nH]c2ccccc12)C(=O)N[C@@H](CCCNC(=N)N)C(=O)N[C@@H](CCCNC(=N)N)C(N)=O (H-VRL[Orn]VAVRIWRR-NH2)
- inhibition (Staphylococcus aureus [1]): Dose-dependent effect
- residual biofilm growth (% of control) (Staphylococcus aureus [2]): 36.9%
- Activity (Staphylococcus aureus [3]): Active

SMILES: CC[C@H](C)[C@H](NC(=O)[C@H](CCCNC(=N)N)NC(=O)[C@@H](NC(=O)[C@H](C)NC(=O)[C@@H](NC(=O)[C@H](CCCCNC(=N)N)NC(=O)[C@H](CC(C)C)NC(=O)[C@H](CCCNC(=N)N)NC(=O)[C@@H](N)C(C)C)C(C)C)C(C)C)C(=O)N[C@@H](Cc1c[nH]c2ccccc12)C(=O)N[C@@H](CCCNC(=N)N)C(=O)N[C@@H](CCCNC(=N)N)C(N)=O (H-VRL[hArg]VAVRIWRR-NH2)
- inhibition (Staphylococcus aureus [1]): Dose-dependent effect
- residual biofilm growth (% of control) (Staphylococcus aureus [2]): 107.6%
- Activity (Staphylococcus aureus [3]): Active

SMILES: CC[C@H](C)[C@H](NC(=O)[C@H](CCCNC(=N)N)NC(=O)[C@@H](NC(=O)[C@H](C)NC(=O)[C@@H](NC(=O)[C@@H](NC(=O)[C@H](CCNC(=N)N)NC(=O)[C@H](CCCNC(=N)N)NC(=O)[C@@H](N)C(C)C)[C@@H](C)CC)C(C)C)C(C)C)C(=O)N[C@@H](Cc1c[nH]c2ccccc12)C(=O)N[C@@H](CCCNC(=N)N)C(=O)N[C@@H](CCCNC(=N)N)C(N)=O (H-VR[Agb]IVAVRIWRR-NH2)
- inhibition (Staphylococcus aureus [1]): Dose-dependent effect
- residual biofilm growth (% of control) (Staphylococcus aureus [2]): 99.8%
- Activity (Staphylococcus aureus [3]): Active
